Test results as given in US20260258025A1, “INHIBITORS OF TDP-43 AND TAU AGGREGATION” (Aquinnah Pharmaceuticals, inc., priority 2023, published 2026).
Entries after “also recorded” stand apart in the source; their conditions may differ.

System: TDP-43 nuclear localization
Assay: TDP-43 localization analysis by immunofluorescence in MG-132 challenged iP11NA human motor neurons
Type: cell-based
Method: Cell culture and differentiation of iPS Cells into motor neurons. Pluripotent stem cells were grown with mTeSR Plus medium on tissue culture dishes coated with Matrigel, and maintained in 5% CO2 incubators at 37° C. Stem cells were passaged as small aggregates of cells after 1 mM EDTA treatment. […] was added to the cultures for 16-24 h after dissociation to prevent cell death. The iP11NA iPS cell line was acquired from ALSTEM. This cell line was generated from pre-made footprint-free human iPS cells with DOX inducible Ngn2 that has been stably integrated into the human AAVS1 “Safe Harbor” site, and provides a convenient means to differentiate human iPS cells into neurons rapidly and efficiently. Motor neuron differentiation was achieved using a modified 5-day strategy.
This approach relies on neural induction through small molecule inhibition of SMAD signaling, accelerated neural differentiation through forced Ngn2 expression, and motor neuron patterning through the activation of retinoic acid and Sonic Hedgehog signaling pathways. In brief, pluripotent stem cells were dissociated to single cells using accutase and plated at a density of 80,000 cells per cm^2 on Matrigel-coated culture plates with mTeSR Plus medium supplemented with ROCK inhibitor (10 μM Y-27632, ATCC). When cells reached 50% confluency, medium was changed to differentiation medium BrainPhys medium supplemented with N2-A, SM1, […]. This time point was defined as day 0 (d0) of motor neuron differentiation. Treatment with small molecules was carried out as follows: 2 μg/mL Doxycyline, 10 μM SB431542, 100 nM LDN-193189, […] and 1 μM Smoothend agonist and 10 uM Edu. […]
A dose-responsive effect was further tested for Compound 183 using quantitative imaging analysis on the CellInsight™ CX7 High Content Analysis Platform. By comparing the intensity of TDP-43 staining in the nucleus and cytoplasm of human motor neurons, we determined Compound 183 could maintain nuclear TDP-43 from 370 nM-10 μM in the proteasome challenged motor neurons (see FIG. 2).

Cc1cc(-c2ccc(C3CCN(C(C)C)CC3)cc2)sc1C(=O)N1CC[C@H](N)C1 [Compound 183, (S)-(3-aminopyrrolidin-1-yl)(5-(4-(1-isopropylpiperidin-4-yl)phenyl)-3-methylthiophen-2-yl)methanone]
nuclear TDP-43 staining (immunofluorescence) (500 nM Compound 183, pretreated 1 hour and during 1 μM MG-132 for 20 hours, human motor neurons): preventing TDP-43 nuclear clearance; also recorded: TDP-43 staining in the nucleus was observed that was much more similar to that of unchallenged neurons | maintenance of nuclear TDP-43, dose response (nuclear vs cytoplasmic TDP-43 staining intensity) (MG-132 1 μM challenged human motor neurons, CX7 quantitative imaging, effective concentration range): maintaining nuclear TDP-43 in a dose-dependent manner
